These results are taken from ChEMBL document CHEMBL1151076, “Discovery of MK-0476, a potent and orally active leukotriene D4 receptor antagonist devoid of peroxisomal enxyme induction” (Bioorg Med Chem Lett, 1995).

In data set [1] the test system is Mus musculus. In words: Peroxisomal enzyme induction in mice after administration of 400 mg/kg perorally for 4 days was determined. It counts as functional. Conditions: route oral.
Data set [2] concerns Mus musculus. The data set is described as follows: Liver weight increase in mice after administration of 400 mg/kg perorally for 4 days was determined. Conditions: route oral. Type of data set: functional.
In data set [3] the target is T1, Cysteinyl leukotriene receptor 1 (Cavia porcellus, UniProt Q2NNR5).
T1 sequence (Q2NNR5 whole entry): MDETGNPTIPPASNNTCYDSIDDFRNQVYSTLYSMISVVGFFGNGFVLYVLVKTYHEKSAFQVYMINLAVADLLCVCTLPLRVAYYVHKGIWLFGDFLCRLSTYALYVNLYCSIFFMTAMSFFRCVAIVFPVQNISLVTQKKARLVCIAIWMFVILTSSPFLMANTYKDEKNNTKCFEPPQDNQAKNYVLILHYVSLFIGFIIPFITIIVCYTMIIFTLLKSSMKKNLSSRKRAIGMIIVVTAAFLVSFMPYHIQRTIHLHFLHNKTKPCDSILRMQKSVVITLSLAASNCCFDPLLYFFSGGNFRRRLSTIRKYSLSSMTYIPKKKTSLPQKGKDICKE
The data set is described as follows: Concentration required for inhibition of binding of [3H]LTD4 to guinea pig lung membranes. Type of data set: tissue-based, Membrane.

Data set [4] relates to Mus musculus. The data set is described as follows: Liver weight increase in mice after administration of 200 mg/kg perorally for 4 days was determined. It counts as functional. To be noted: route oral.
Data set [5] has as its system Mus musculus. The data set is described as follows: Peroxisomal enzyme induction in mice after administration of 200 mg/kg perorally for 4 days was determined. Type of data set: functional. Conditions: route oral.
In data set [6] the target is T1, Cysteinyl leukotriene receptor 1. The data set is described as follows: Concentration required for inhibition of binding of [3H]-LTD4 to guinea pig lung membranes (different expt). Type of data set: tissue-based, Membrane.
Data set [7] is described as follows: Terminal half-life was determined. It counts as ADME.
For a further data set, the species on record is Cavia porcellus. In words: Antagonistic activity of leukotriene D4-induced contractions of non-tonal guinea-pig trachea. To be noted: read-out: pA2 (converted). It counts as functional, organism-based.
Data set [8] is described as follows: Reduction in the decrease in dynamic compliance after 4 hr of administration of 0.01 mg/kg to squirrel monkey. Type of data set: functional.
Data set [9] in a line: Reduction of the increase in pulmonary resistance after 4 hr of administration of 0.01 mg/kg to squirrel monkey. It counts as functional.
The nature of data set [10]: Bioavailability in squirrel monkey. Type of data set: ADME, organism-based. To be noted: saimiri, in vivo; read-out: Bioavailabiility.

Regarding `CC(C)(CC(=O)O)S[C@H](CCc1ccccc1C(C)(C)O)c1cccc(/C=C/c2ccc3ccc(Cl)cc3n2)c1`, the PEI with Mus musculus [1] is reported as -10%. This molecule returned an LWI in the data set with Mus musculus [2] of 3%. Also, in data set [3], the IC50 (in general, the midpoint of a concentration-inhibition curve) was found to be 0.68 nM.

Regarding `CC(CS[C@H](CCc1ccccc1C(C)(C)O)c1cccc(/C=C/c2ccc3ccc(Cl)cc3n2)c1)CC(=O)O` (some centres not stated), in the data set on Mus musculus [1], the PEI amounted to 18%. The same molecule came in with an LWI with Mus musculus [2] of 10%. The same molecule displayed an IC50 in data set [3] of 0.43 nM.

In the case of `C[C@H](S[C@H](CCc1ccccc1C(C)(C)O)c1cccc(/C=C/c2ccc3ccc(Cl)cc3n2)c1)[C@@H](C)C(=O)O`, in the data set with Mus musculus [1], the PEI is 393%. The molecule also displayed an LWI in the data set with Mus musculus [2] of 32%. In data set [3], this molecule yielded a half-inhibitory concentration (IC50) of 2.3 nM.

On to `CC[C@H](CS[C@H](CCc1ccccc1C(C)(C)O)c1cccc(/C=C/c2ccc3ccc(Cl)cc3n2)c1)C(=O)O`, for which the LWI in the data set with Mus musculus [4] is listed as 63%. In the data set with Mus musculus [5], the PEI is 608%. The 50% inhibitory concentration (IC50) in data set [3] is 0.2 nM.

Turning to `CN(C)C(=O)CCS[C@H](SCCC(=O)[O-])c1cccc(/C=C/c2ccc3ccc(Cl)cc3n2)c1.[Na+]`, the PEI in the data set on Mus musculus [1] is reported as 65%. This molecule also registered an LWI in the data set with Mus musculus [2] of 0%. The 50% inhibitory concentration (IC50) in data set [3] was 3.1 nM.

For `CN(C)C(=O)CCSC(SCCC(=O)[O-])c1cccc(/C=C/c2ccc3ccc(Cl)cc3n2)c1.[Na+]` (configuration not stated), in the data set on Mus musculus [1], the PEI was determined as 318%. The LWI with Mus musculus [2] came out at 38%. For the same molecule, the IC50 in data set [6] is 2.5 nM; in data set [3], 1.5 nM.

As for `C[C@H](C(=O)O)[C@@H](C)S[C@H](CCc1ccccc1C(C)(C)O)c1cccc(/C=C/c2ccc3ccc(Cl)cc3n2)c1`, the PEI in the data set on Mus musculus [1] stood at 91%. Besides, the LWI in the data set with Mus musculus [2] is 10%. Also, the IC50 in data set [3] stood at 0.3 nM.

With `C[C@H](CC(=O)O)S[C@H](CCc1ccccc1C(C)(C)O)c1cccc(/C=C/c2ccc3ccc(Cl)cc3n2)c1`, in the data set on Mus musculus [1], the PEI turned out to be 109%. In the data set with Mus musculus [2], this molecule gave an LWI of 12%. For the same molecule, the half-maximal inhibitory concentration (IC50) in data set [3] amounted to 0.6 nM.

As for `CCC(CC(=O)O)S[C@H](CCc1ccccc1C(C)(C)O)c1cccc(/C=C/c2ccc3ccc(Cl)cc3n2)c1` (some centres not stated), the PEI in the data set with Mus musculus [1] was found to be 188%. Also, the LWI in the data set on Mus musculus [2] amounted to 9%. The molecule further came in with an IC50 in [3] of 0.58 nM.

Take `C[C@@H](CC(=O)O)S[C@H](CCc1ccccc1C(C)(C)O)c1cccc(/C=C/c2ccc3ccc(Cl)cc3n2)c1`: in the data set on Mus musculus [1], the PEI worked out at 24%. The LWI with Mus musculus [2] is on record as 11%. In [3], the IC50 stood at 0.33 nM.

`CC(S[C@H](CCc1ccccc1C(C)(C)O)c1cccc(/C=C/c2ccc3ccc(Cl)cc3n2)c1)C(C)C(=O)O` (some centres not stated): the PEI in the data set with Mus musculus [1] is 673%. The LWI in the data set with Mus musculus [2] is 27%. The half-inhibitory concentration (IC50) in [3] came out at 0.44 nM.

The molecule `CC(CC(=O)O)S[C@H](CCc1ccccc1C(C)(C)O)c1cccc(/C=C/c2ccc3ccc(Cl)cc3n2)c1` (some centres not stated) had an LWI in the data set with Mus musculus [4] of 5%. In the data set with Mus musculus [5], the PEI came to 22%. This molecule also had an IC50 in [3] of 0.79 nM.

As for `CC(C)(CS[C@H](CCc1ccccc1C(C)(C)O)c1cccc(/C=C/c2ccc3ccc(Cl)cc3n2)c1)CC(=O)O`, the PEI in the data set with Mus musculus [1] came to 25%. The LWI in the data set with Mus musculus [2] was 2%. In [3], this molecule came in with an IC50 of 0.3 nM.

In the case of `CC(C)(O)c1ccccc1CC[C@@H](SCC1(CC(=O)O)CC1)c1cccc(/C=C/c2ccc3ccc(Cl)cc3n2)c1` [MONTELUKAST], in [7], the half-life (commonly the time needed for the level to fall by half in the phase considered) was 4 h. The Kb in the data set listed under Cavia porcellus is 0.501 nM. In addition, the PEI in the data set on Mus musculus [1] is 16%. Besides, in the data set with Mus musculus [2], the LWI is 0%. Moreover, the values for the Reduction in data set [8] and in data set [9] were 78% and 56%, respectively. For the same molecule, in data set [10], the bioavailability worked out at 42%.
